Laboratory results reported in ChEMBL document CHEMBL1128103, “Thromboxane modulating agents. 1. Design of 1-[(arylsulfonyl)amino] alkylindole derivatives as dual thromboxane synthase inhibitor/thromboxane receptor antagonists” (Bioorg Med Chem Lett, 1995).

Assays:
[1] = target: T1, Thromboxane-A synthase (Homo sapiens, UniProt P24557); test: Compound was tested for the ability to inhibit human platelets microsomal Thromboxane A2 synthase
T1 sequence (P24557 whole entry): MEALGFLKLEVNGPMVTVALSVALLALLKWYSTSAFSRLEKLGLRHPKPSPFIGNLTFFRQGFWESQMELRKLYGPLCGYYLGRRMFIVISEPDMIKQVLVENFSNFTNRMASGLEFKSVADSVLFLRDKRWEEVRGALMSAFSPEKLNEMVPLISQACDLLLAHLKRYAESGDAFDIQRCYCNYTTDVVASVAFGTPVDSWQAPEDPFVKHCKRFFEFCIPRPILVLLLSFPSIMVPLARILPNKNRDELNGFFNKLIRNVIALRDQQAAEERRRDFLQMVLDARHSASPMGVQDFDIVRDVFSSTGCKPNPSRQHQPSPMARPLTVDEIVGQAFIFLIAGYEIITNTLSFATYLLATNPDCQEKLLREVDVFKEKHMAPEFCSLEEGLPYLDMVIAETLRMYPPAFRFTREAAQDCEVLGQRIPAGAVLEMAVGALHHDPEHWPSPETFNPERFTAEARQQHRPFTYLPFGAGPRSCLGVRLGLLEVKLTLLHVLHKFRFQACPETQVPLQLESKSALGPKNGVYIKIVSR

[2] = target: T2, Thromboxane A2 receptor (Rattus norvegicus, UniProt P34978); test: Compound was tested in vitro for Thromboxane A2 receptor antagonism by inhibiting contraction of rat aorta induced by the stable thromboxane agonist U-46,619; format: functional, tissue-based; conditions: read-out: pA2 (converted)
T2 sequence (P34978 whole entry): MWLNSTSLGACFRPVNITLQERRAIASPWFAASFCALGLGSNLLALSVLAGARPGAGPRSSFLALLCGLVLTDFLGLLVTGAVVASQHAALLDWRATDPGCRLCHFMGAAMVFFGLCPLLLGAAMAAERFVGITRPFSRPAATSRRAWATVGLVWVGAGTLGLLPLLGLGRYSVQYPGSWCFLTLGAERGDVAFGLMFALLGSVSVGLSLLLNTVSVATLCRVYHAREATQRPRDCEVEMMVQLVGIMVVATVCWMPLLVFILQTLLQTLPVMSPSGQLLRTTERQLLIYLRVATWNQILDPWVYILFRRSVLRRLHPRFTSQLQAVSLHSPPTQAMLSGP

[3] = target: T2, Thromboxane A2 receptor; test: Compound was tested in vitro for Thromboxane A2 receptor antagonism by inhibiting contraction of rat aorta induced by the stable thromboxane agonist U-46,619; […]; format: functional, tissue-based; conditions: read-out: pA2 (converted)
[4] = target: T2, Thromboxane A2 receptor; test: Compound was tested in vitro for thromboxane A2 receptor antagonism by inhibiting contraction of rat aorta induced by the stable thromboxane agonist U-46,619; format: functional, tissue-based; conditions: read-out: pA2 (converted)
[5] = target: T3, Thromboxane-A synthase (Homo sapiens) (UniProt P24557); test: Compound was tested for the ability to inhibit human platelets microsomal Thromboxane A2 synthase at 1 uM concentration
T3 sequence (whole entry): T1 sequence (P24557 whole entry)

Structure (SMILES)	IC50 [1] [nM]	Kb [2] [nM]	Kb [3] [nM]	Kb [4] [nM]	inhibition [5] [%]
Cc1c(Cn2ccnc2)c2cc(CCC(=O)O)ccc2n1CCNS(=O)(=O)c1ccc(F)cc1	39	1.58	–	–	–
Cc1c(Cn2ccnc2)n(CCCCNS(=O)(=O)c2ccc(F)cc2)c2ccc(C(=O)O)cc12	39	–	> 1000	–	–
Cc1c(Cc2cccnc2)c2cc(CCC(=O)O)ccc2n1CCNS(=O)(=O)c1ccc(F)cc1	61	0.692	–	–	–
Cc1c(Cc2ccncc2)c2cc(CCC(=O)O)ccc2n1CCNS(=O)(=O)c1ccc(F)cc1	78	0.0741	–	–	–
Cc1[nH]c2ccc(CCC(=O)O)cc2c1Cc1ccncc1	22	–	–	60.3	–
O=C(O)CCc1ccc2c(c1)c(Cc1ccncc1)cn2CCNS(=O)(=O)c1ccc(F)cc1	–	–	–	7.59	42
Cc1c(Cn2ccnc2)n(CCNS(=O)(=O)c2ccc(F)cc2)c2ccc(C(=O)O)cc12	20	–	> 1000	–	–
Cc1c(C)n(CCNS(=O)(=O)c2ccc(F)cc2)c2ccc(CCC(=O)O)cc12	–	2.51	–	–	–
Cc1c(Cn2ccnc2)n(CCCNS(=O)(=O)c2ccc(F)cc2)c2ccc(C(=O)O)cc12	15	–	> 1000	–	–
Cc1c(Cn2ccnc2)n(CCNS(=O)(=O)c2ccc(F)cc2)c2ccc(CCC(=O)O)cc12	135	138	–	–	–
O=C(O)COc1ccc(CCNS(=O)(=O)c2ccccc2)cc1 [SULOTROBAN]	–	81.3	–	–	–
